# Values of other authors, collected in paper PMC7150867, “Molecular Imaging of Galectin-1 Expression as a Biomarker of Papillary Thyroid Cancer by Using Peptide-Functionalized Imaging Probes” (Biology, 2020).
# Description: To validate the effectiveness of gal-1-targeted peptides, another type of probe and therefore imaging of thyroid cancer was explored. Owing to its high sensitivity, in the order of nanomolar, resolution in the range of 50–130 µm, and nonionizing radiation, FLI appears as a promising imaging technique in the field of biomedical research and clinical diagnosis of a wide range of pathologies. In oncology, FLI enables early diagnosis and the depiction of the extent of cancer invasion, improving the accuracy of tumor resection.
sequence,measurement,setting,value
"YSWHIDIVAPRN [Peptide P7, gal-1-targeted 12-mer linear peptide identified by phage display]",LogP,,1.02
same,LogD7.4,pH 7.4,−7.63
